We go through 10 compounds from ChEMBL document CHEMBL1201862, “PubChem BioAssay data set” (2004).

Test systems include OVCAR-5; HL-60; A498; MDA-N; EKVX; NCI-H226; M14; SK-MEL-28; MDA-MB-435; NCI-H522; HCC 2998; HT-29; SN12C; IGROV-1; CCRF-CEM; HOP-92; T47D; SK-MEL-5; SNB-19.
What all share (assay): inhibition of tumour cell growth, NCI panel, 48 h

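Briefly, cells in 96-well plates were exposed to five compound concentrations for 48 h, and endpoints were estimated by linear interpolation. The concentration for 50% growth inhibition is given as GI50.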 The source made the active and inactive calls. Cut-off read from the data, not from the text of the source: active = GI50 up to about 1.1 µM and inactive = higher. Some results are limits rather than exact numbers.

Turning to `O=C(O)/C=C\C(=O)Nc1ccc2c(c1)-c1ccccc1C2`, the GI50 in the experiment on OVCAR-5 is > 100 µM (inactive); in the experiment on HL-60, > 100 µM (inactive); with A498, 94.6 µM (inactive); in the experiment on MDA-N, > 100 µM (inactive); with EKVX it was 87.9 µM (inactive); with NCI-H226, 28.9 µM (inactive). Also, the GI50 was > 100 µM (inactive) in the experiment on M14; > 100 µM (inactive) in the experiment on SK-MEL-28; > 100 µM (inactive) in the experiment on MDA-MB-435; 37 µM (inactive) in the experiment with NCI-H522; 36.7 µM (inactive) in the experiment on HCC 2998; > 100 µM (inactive) in the experiment on HT-29. For the same compound, the GI50 is > 100 µM (inactive) in the experiment on SN12C; > 100 µM (inactive) with IGROV-1; 56.8 µM (inactive) in the experiment with CCRF-CEM; 44.6 µM (inactive) in the experiment on HOP-92; 88.1 µM (inactive) in the experiment with T47D; > 100 µM (inactive) with SK-MEL-5. The GI50 with SNB-19 was 42.3 µM (inactive).
With `NC(=O)C(C(N)=O)=C(O)/C(O)=C/C(=O)c1ccccc1`, the GI50 with OVCAR-5 was > 100 µM (inactive); in the experiment on HL-60, 28.4 µM (inactive); with A498 it was > 100 µM (inactive); in the experiment with MDA-N it was > 100 µM (inactive); with EKVX, > 100 µM (inactive); in the experiment with NCI-H226, > 100 µM (inactive). Further, the GI50 in the experiment with M14 was > 100 µM (inactive); in the experiment on SK-MEL-28, > 100 µM (inactive); with MDA-MB-435, > 100 µM (inactive); in the experiment with NCI-H522 it was 16.4 µM (inactive); in the experiment with HCC 2998, > 100 µM (inactive); in the experiment on HT-29, > 100 µM (inactive). Further, the GI50 in the experiment with SN12C is > 100 µM (inactive); in the experiment on IGROV-1, > 100 µM (inactive); in the experiment on CCRF-CEM it was 21.5 µM (inactive); in the experiment with HOP-92 it was > 100 µM (inactive); in the experiment with T47D, > 100 µM (inactive); with SK-MEL-5, 73.8 µM (inactive). For the same compound, the GI50 in the experiment on SNB-19 was > 100 µM (inactive).
As for `CC(C)OC(=O)Nc1c([N+](=O)[O-])cc(C(F)(F)F)cc1[N+](=O)[O-]`, the GI50 was > 100 µM (inactive) in the experiment on OVCAR-5; > 100 µM (inactive) in the experiment with HL-60; > 100 µM (inactive) in the experiment with A498; > 100 µM (inactive) with MDA-N; > 100 µM (inactive) in the experiment on EKVX; > 89.1 µM (inactive) in the experiment on NCI-H226. Also, the GI50 in the experiment with M14 was > 100 µM (inactive); in the experiment on SK-MEL-28, > 100 µM (inactive); in the experiment with MDA-MB-435, > 100 µM (inactive); in the experiment on NCI-H522 it was > 95.7 µM (inactive); with HCC 2998 it was > 100 µM (inactive); in the experiment with HT-29, > 100 µM (inactive). Besides, the GI50 with SN12C was > 91 µM (inactive); in the experiment on IGROV-1, > 66.7 µM (inactive); in the experiment with CCRF-CEM, > 100 µM (inactive); with HOP-92, 33 µM (inactive); with T47D, > 100 µM (inactive); with SK-MEL-5, > 100 µM (inactive). Also, the GI50 in the experiment with SNB-19 is 41.1 µM (inactive).
Consider `N#Cc1ncc(C(Cl)Cl)nc1Cl`, for which the GI50 with OVCAR-5 was 1.95 µM (inactive); in the experiment on HL-60, 0.748 µM (active); in the experiment on A498, > 10 µM (inactive); with MDA-N, 1.5 µM (inactive); in the experiment with EKVX it was 1.75 µM (inactive); in the experiment on NCI-H226 it was 9.27 µM (inactive). Moreover, the GI50 in the experiment on M14 was 1.13 µM (inactive); with SK-MEL-28 it was 1.89 µM (inactive); in the experiment with MDA-MB-435 it was 1.76 µM (inactive); in the experiment on NCI-H522, 0.502 µM (active); with HCC 2998, 1.69 µM (inactive); with HT-29, 1.74 µM (inactive). For the same compound, the GI50 was 1.74 µM (inactive) in the experiment on SN12C; 2.09 µM (inactive) with IGROV-1; 0.491 µM (active) in the experiment with CCRF-CEM; 0.00769 µM (active) in the experiment on HOP-92; 1.76 µM (inactive) with T47D; 1.75 µM (inactive) in the experiment on SK-MEL-5. Further, the GI50 in the experiment with SNB-19 is 6.38 µM (inactive).
`COc1cc2cc(C(=O)N3CC(CCl)c4ccc(NCCN)cc43)[nH]c2c(OC)c1OC` (stereo not given): the GI50 was 0.337 µM (active) in the experiment on OVCAR-5; 0.0319 µM (active) in the experiment with HL-60; 0.184 µM (active) in the experiment on A498; 0.176 µM (active) in the experiment on MDA-N; 0.528 µM (active) with EKVX; 0.296 µM (active) with NCI-H226. Also, the GI50 is 0.198 µM (active) with M14; 0.249 µM (active) in the experiment on SK-MEL-28; 0.2 µM (active) in the experiment with MDA-MB-435; 0.046 µM (active) in the experiment with NCI-H522; 0.146 µM (active) in the experiment with HCC 2998; 0.145 µM (active) in the experiment on HT-29. Further, the GI50 in the experiment with SN12C is 0.237 µM (active); with IGROV-1, 0.112 µM (active); in the experiment on CCRF-CEM, 0.0783 µM (active); with HOP-92 it was 0.289 µM (active); with T47D it was 0.301 µM (active); in the experiment with SK-MEL-5 it was 0.116 µM (active). Also, the GI50 in the experiment on SNB-19 was 0.292 µM (active).
Take `CCOC(=O)c1[nH]cc(C)c1-c1c[nH]c2ccccc12`: the GI50 was 39.7 µM (inactive) with OVCAR-5; 6.44 µM (inactive) in the experiment on HL-60; 59.6 µM (inactive) in the experiment on A498; 24.9 µM (inactive) in the experiment with MDA-N; > 63.8 µM (inactive) with EKVX; 19.9 µM (inactive) in the experiment on NCI-H226. For the same compound, the GI50 with M14 is 24.9 µM (inactive); in the experiment on SK-MEL-28, 39.4 µM (inactive); with MDA-MB-435, 26 µM (inactive); in the experiment with NCI-H522, 24.6 µM (inactive); in the experiment with HCC 2998, 19.9 µM (inactive); in the experiment with HT-29, 21.6 µM (inactive). For the same compound, the GI50 in the experiment on SN12C was 56 µM (inactive); in the experiment on IGROV-1 it was 33.2 µM (inactive); with CCRF-CEM, 18.9 µM (inactive); in the experiment on HOP-92, 22.8 µM (inactive); in the experiment on T47D, 36.3 µM (inactive); in the experiment with SK-MEL-5 it was 13.8 µM (inactive). Also, in the experiment on SNB-19, the GI50 is 24.9 µM (inactive).
Consider `CC(C)C1=C2CCC3(C)C(CCC4C5C6OCC5(CCC6(C)C)CCC43C)C2(C)CC1` (stereo not given), for which the GI50 in the experiment with OVCAR-5 was 33 µM (inactive); in the experiment with HL-60, 8.81 µM (inactive); in the experiment with A498 it was 20.4 µM (inactive); with MDA-N it was 13.7 µM (inactive); in the experiment with EKVX, 19.1 µM (inactive); with NCI-H226, 33.7 µM (inactive). For the same compound, the GI50 with M14 is 17.4 µM (inactive); with SK-MEL-28, 17.8 µM (inactive); with MDA-MB-435, 17.4 µM (inactive); with NCI-H522 it was 18.8 µM (inactive); with HCC 2998 it was 18.8 µM (inactive); in the experiment on HT-29 it was 17.7 µM (inactive). For the same compound, the GI50 in the experiment on SN12C was 15 µM (inactive); in the experiment on IGROV-1, 13.1 µM (inactive); with CCRF-CEM, 12.3 µM (inactive); with HOP-92, 18.6 µM (inactive); in the experiment with T47D, 27 µM (inactive); in the experiment on SK-MEL-5 it was 21.8 µM (inactive). For the same compound, in the experiment on SNB-19, the GI50 was 29.1 µM (inactive).
Regarding `CN1CCN([C@H]2C[C@H]3[C@@H]4CC=C5C[C@@H](O)CC[C@]5(C)[C@H]4CC[C@]3(C)C2=O)CC1`, the GI50 in the experiment with OVCAR-5 was > 100 µM (inactive); in the experiment on HL-60 it was 31.8 µM (inactive); in the experiment on A498, > 100 µM (inactive); with MDA-N, > 100 µM (inactive); in the experiment with EKVX, > 100 µM (inactive); in the experiment with NCI-H226, > 100 µM (inactive). Moreover, the GI50 with M14 is > 100 µM (inactive); in the experiment on SK-MEL-28 it was > 100 µM (inactive); in the experiment on MDA-MB-435 it was > 100 µM (inactive); in the experiment on NCI-H522 it was > 100 µM (inactive); with HCC 2998 it was > 100 µM (inactive); in the experiment with HT-29 it was 42.2 µM (inactive). In addition, the GI50 with SN12C, in the experiment on IGROV-1, with CCRF-CEM, in the experiment on HOP-92, in the experiment with T47D and in the experiment on SK-MEL-5 was > 100 µM (inactive) each time. Further, the GI50 in the experiment with SNB-19 is > 100 µM (inactive).
Turning to `O=S(=O)(O)c1ccc2c(/N=N/c3ccc(S(=O)(=O)O)c4ccccc34)c(O)c(S(=O)(=O)O)cc2c1`, the GI50 in the experiment on OVCAR-5, in the experiment on HL-60, in the experiment with A498, in the experiment with MDA-N, with EKVX and with NCI-H226 was > 100 µM (inactive) each time. Further, the GI50 in the experiment with M14, in the experiment with SK-MEL-28, with MDA-MB-435, in the experiment on NCI-H522, in the experiment on HCC 2998 and in the experiment on HT-29 was > 100 µM (inactive) throughout. Moreover, the GI50 with SN12C, with IGROV-1, in the experiment with CCRF-CEM, in the experiment on HOP-92, with T47D and with SK-MEL-5 was > 100 µM (inactive) throughout. Further, in the experiment on SNB-19, the GI50 is > 100 µM (inactive).
As for `CC(=O)OC(C)c1cc2c(s1)C(=O)c1scc(C(C)OC(C)=O)c1C2=O` (stereo not given), the GI50 in the experiment with OVCAR-5 is 0.57 µM (active); with HL-60, 0.646 µM (active); in the experiment on A498, 0.619 µM (active); in the experiment on MDA-N, 0.0817 µM (active); in the experiment with EKVX it was 0.847 µM (active); in the experiment with NCI-H226 it was 2.24 µM (inactive). Moreover, the GI50 was 0.117 µM (active) with M14; 0.226 µM (active) in the experiment with SK-MEL-28; 0.0292 µM (active) with MDA-MB-435; 0.215 µM (active) with NCI-H522; 0.317 µM (active) with HCC 2998; 0.391 µM (active) in the experiment on HT-29. Besides, the GI50 in the experiment on SN12C was 0.288 µM (active); with IGROV-1 it was 0.662 µM (active); in the experiment on CCRF-CEM, 0.367 µM (active); in the experiment with HOP-92, 1.71 µM (inactive); in the experiment with T47D, 0.661 µM (active); in the experiment with SK-MEL-5, 0.0653 µM (active). Also, the GI50 in the experiment with SNB-19 was 0.201 µM (active).
